Assays:
Format in all cases: ADME, organism-based, Canis lupus familiaris
[1] = Biodistribution in iv dosed dog ventral abdomen measured after 30 mins by scintigraphic analysis; settings: in vivo, 0.5 h
[2] = test system: Canis familiaris; assay: Biodistribution in iv dosed dog left lateral whole body measured after 4 mins by scintigraphic analysis; settings: in vivo
[3] = Biodistribution in iv dosed dog left lateral thorax measured after 27 mins by scintigraphic analysis; settings: in vivo, 0.45 h
[4] = Biodistribution in iv dosed dog left lateral head/neck measured after 35 mins by scintigraphic analysis; settings: in vivo
[5] = test system: Liver; assay: Biodistribution in iv dosed dog left lateral liver measured after 18 to 80 mins by scintigraphic analysis; settings: in vivo
[6] = Biodistribution in iv dosed dog blood measured after 3 mins by scintigraphic analysis; settings: in vivo, 0.05 h
[7] = Biodistribution in iv dosed dog left lateral heart measured after 18 to 80 mins by scintigraphic analysis; settings: in vivo
[8] = Biodistribution in iv dosed dog urinary bladder measured after 21 to 51 mins by scintigraphic analysis; settings: in vivo
[9] = test system: Nucleic Acid; assay: Ratio of drug level in temporal muscle to spleen in iv dosed dog measured after 40 mins; settings: in vivo
[10] = test system: Nucleic Acid; assay: Ratio of drug level in temporal muscle to cerebrospinal fluid in iv dosed dog measured after 34 mins; settings: in vivo
[11] = test system: Nucleic Acid; assay: Ratio of drug level in temporal muscle to spleen in iv dosed dog measured after 34 mins; settings: in vivo
[12] = test system: Nucleic Acid; assay: Ratio of drug level in temporal muscle to stomach in iv dosed dog measured after 40 mins; settings: in vivo
[13] = test system: Nucleic Acid; assay: Ratio of drug level in temporal muscle to brain in iv dosed dog measured after 40 mins; settings: in vivo
[14] = test system: Nucleic Acid; assay: Ratio of drug level in temporal muscle to pancreas in iv dosed dog measured after 34 mins; settings: in vivo
[15] = test system: Nucleic Acid; assay: Ratio of drug level in temporal muscle to kidney in iv dosed dog measured after 34 mins; settings: in vivo
[16] = test system: Nucleic Acid; assay: Ratio of drug level in temporal muscle to heart in iv dosed dog measured after 40 mins; settings: in vivo
[17] = test system: Nucleic Acid; assay: Ratio of drug level in temporal muscle to mesenteric fat in iv dosed dog measured after 40 mins; settings: in vivo
[18] = Ratio of drug level in temporal muscle to bile in iv dosed dog measured after 40 mins; settings: in vivo
[19] = test system: Nucleic Acid; assay: Ratio of drug level in temporal muscle to heart in iv dosed dog measured after 34 mins; settings: in vivo
[20] = Ratio of drug level in temporal muscle to blood in iv dosed dog measured after 34 mins
[21] = test system: Nucleic Acid; assay: Ratio of drug level in temporal muscle to stomach in iv dosed dog measured after 34 mins; settings: in vivo
[22] = test system: Nucleic Acid; assay: Ratio of drug level in temporal muscle to brain in iv dosed dog measured after 34 mins; settings: in vivo
[23] = Ratio of drug level in temporal muscle to bile in iv dosed dog measured after 34 mins; settings: in vivo
[24] = test system: Nucleic Acid; assay: Ratio of drug level in temporal muscle to adrenal in iv dosed dog measured after 40 mins; settings: in vivo
[25] = test system: Nucleic Acid; assay: Ratio of drug level in temporal muscle to kidney in iv dosed dog measured after 40 mins; settings: in vivo
[26] = Ratio of drug level in temporal muscle to urine in iv dosed dog measured after 34 mins; settings: in vivo
[27] = test system: Nucleic Acid; assay: Ratio of drug level in temporal muscle to liver in iv dosed dog measured after 34 mins; settings: in vivo
[28] = test system: Nucleic Acid; assay: Ratio of drug level in temporal muscle to mesenteric nodes in iv dosed dog measured after 40 mins; settings: in vivo
[29] = test system: Nucleic Acid; assay: Ratio of drug level in temporal muscle to lung in iv dosed dog measured after 40 mins; settings: in vivo
[30] = test system: Nucleic Acid; assay: Ratio of drug level in temporal muscle to pancreas in iv dosed dog measured after 40 mins; settings: in vivo
[31] = test system: Nucleic Acid; assay: Ratio of drug level in temporal muscle to lung in iv dosed dog measured after 34 mins; settings: in vivo
[32] = Ratio of drug level in temporal muscle to urine in iv dosed dog measured after 40 mins; settings: in vivo
[33] = test system: Nucleic Acid; assay: Ratio of drug level in temporal muscle to liver in iv dosed dog measured after 40 mins; settings: in vivo
[34] = test system: Canis familiaris; assay: Biodistribution in iv dosed dog lung after 3 mins by scintigraphic analysis; settings: in vivo, 0.05 h

## N#[11C]C(O)c1ccc(O)c(O)c1 (configuration not stated)
[1]
  Drug uptake: Active
[2]
  Drug uptake: Active
[3]
  Drug uptake: Active
[4]
  Drug uptake: Active

## COc1ccc(C(O)[11C]#N)cc1 (configuration not stated)
[5]
  Drug uptake: Active
[6]
  Drug uptake: Active
[7]
  Drug uptake: Active

## Cc1cccc(C(O)[11C](=O)O)c1 (configuration not stated)
[2]
  Drug uptake: Active
[8]
  Drug uptake: Active

## O=[11C](O)C(O)c1ccc(Cl)cc1 (configuration not stated)
[2]
  Drug uptake: Active
[8]
  Drug uptake: Active

## O=[11C](O)C(O)c1ccccc1Cl (configuration not stated)
[9]
  Ratio: 1.46
[10]
  Ratio: 2
[2]
  Drug uptake: Active
[11]
  Ratio: 1.08
[12]
  Ratio: 1.17
[13]
  Ratio: 0.16
[14]
  Ratio: 4.54
[15]
  Ratio: 4.46
[16]
  Ratio: 1.06
[17]
  Ratio: 0.47
[18]
  Ratio: 0.85
[19]
  Ratio: 1.15
[20]
  Kp at 34 min: 13.8
[21]
  Ratio: 1.35
[22]
  Ratio: 0.23
[23]
  Ratio: 1.23
[24]
  Ratio: 3.73
[25]
  Ratio: 6.26
[26]
  Ratio: 36.77
[27]
  Ratio: 1.38
[28]
  Ratio: 2.28
[29]
  Ratio: 1.6
[30]
  Ratio: 1.18
[31]
  Ratio: 1.08
[32]
  Ratio: 295
[8]
  Drug uptake: Active
[33]
  Ratio: 1.79

## O=[11C](O)C(O)c1ccccc1 (configuration not stated)
[2]
  Drug uptake: Active
[8]
  Drug uptake: Active

## CCO[11C](=O)C(O)c1ccccc1 (configuration not stated)
[34]
  Drug uptake: Active

## O=[11C](OCc1ccccc1)C(O)c1ccccc1 (configuration not stated)
[34]
  Drug uptake: Active
